Results from PubChem BioAssay (NCI).
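Exposure lasted 48 hours, with cells grown in 96-well plates and compounds tested at five concentrations. TGI: concentration producing complete growth inhibition.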

Assays:
Test in all cases: DTP human tumour cell line panel, 48 h
SN12C renal = system: SN12C renal
COLO 205 colon = system: COLO 205 colon
SNB-19 CNS = system: SNB-19 CNS
MCF7 breast = system: MCF7 breast
UO-31 renal = system: UO-31 renal
K-562 leukemia = system: K-562 leukemia
ACHN renal = system: ACHN renal
HL-60(TB) leukemia = system: HL-60(TB) leukemia
A549 NSCLC = system: A549 NSCLC
M14 melanoma = system: M14 melanoma
SK-MEL-28 melanoma = system: SK-MEL-28 melanoma
UACC-62 melanoma = system: UACC-62 melanoma
SF-539 CNS = system: SF-539 CNS
MALME-3M melanoma = system: MALME-3M melanoma
HT29 colon = system: HT29 colon
MDA-N = system: MDA-N
MDA-MB-231 breast = system: MDA-MB-231 breast
SNB-75 CNS = system: SNB-75 CNS
SF-268 CNS = system: SF-268 CNS
U251 CNS = system: U251 CNS
HOP-92 NSCLC = system: HOP-92 NSCLC
OVCAR-5 ovarian = system: OVCAR-5 ovarian
NCI-H226 lung = system: NCI-H226 lung
CCRF-CEM leukemia = system: CCRF-CEM leukemia
T-47D breast = system: T-47D breast
LOX IMVI melanoma = system: LOX IMVI melanoma
BT-549 breast = system: BT-549 breast
MDA-MB-435 = system: MDA-MB-435
OVCAR-4 ovarian = system: OVCAR-4 ovarian
SK-MEL-2 melanoma = system: SK-MEL-2 melanoma
HCC-2998 colon = system: HCC-2998 colon
OVCAR-8 ovarian = system: OVCAR-8 ovarian
TK-10 renal = system: TK-10 renal
SF-295 CNS = system: SF-295 CNS
UACC-257 melanoma = system: UACC-257 melanoma
HOP-62 NSCLC = system: HOP-62 NSCLC
CAKI-1 renal = system: CAKI-1 renal
SK-OV-3 ovarian = system: SK-OV-3 ovarian
SW-620 colon = system: SW-620 colon
NCI-H522 lung = system: NCI-H522 lung
HCT-15 colon = system: HCT-15 colon
PC-3 prostate = system: PC-3 prostate
HCT-116 colon = system: HCT-116 colon
RPMI-8226 leukemia = system: RPMI-8226 leukemia
RXF 393 renal = system: RXF 393 renal
SK-MEL-5 melanoma = system: SK-MEL-5 melanoma
HS 578T breast = system: HS 578T breast
NCI-H460 lung = system: NCI-H460 lung
KM12 colon = system: KM12 colon
786-0 renal = system: 786-0 renal
SR leukemia = system: SR leukemia
IGROV1 ovarian = system: IGROV1 ovarian
EKVX NSCLC = system: EKVX NSCLC
DU-145 prostate = system: DU-145 prostate
NCI/ADR-RES ovarian = system: NCI/ADR-RES ovarian
MOLT-4 leukemia = system: MOLT-4 leukemia
A498 renal = system: A498 renal
NCI-H23 lung = system: NCI-H23 lung
OVCAR-3 ovarian = system: OVCAR-3 ovarian

Question: What does the source list for `CN(C)c1ccc(/C=C(\C#N)c2nc(-c3cc4ccccc4oc3=O)cs2)cc1`?
Answer: TGI (SN12C renal): > 50 µM; TGI (COLO 205 colon): > 50 µM; TGI (SNB-19 CNS): > 50 µM; TGI (MCF7 breast): > 50 µM; TGI (UO-31 renal): > 50 µM; TGI (K-562 leukemia): > 50 µM; TGI (ACHN renal): > 50 µM; TGI (HL-60(TB) leukemia): > 50 µM; TGI (A549 NSCLC): > 50 µM; TGI (M14 melanoma): > 50 µM; TGI (SK-MEL-28 melanoma): > 50 µM; TGI (UACC-62 melanoma): 24.3 µM; TGI (SF-539 CNS): 26.7 µM; TGI (MALME-3M melanoma): > 50 µM; TGI (HT29 colon): > 50 µM; TGI (MDA-N): > 50 µM; TGI (MDA-MB-231 breast): 40.9 µM; TGI (SNB-75 CNS): 4.21 µM; TGI (SF-268 CNS): > 50 µM; TGI (U251 CNS): 44.5 µM; TGI (HOP-92 NSCLC): 16.8 µM; TGI (OVCAR-5 ovarian): > 50 µM; TGI (NCI-H226 lung): > 50 µM; TGI (CCRF-CEM leukemia): > 50 µM; TGI (T-47D breast): > 50 µM; TGI (LOX IMVI melanoma): > 50 µM; TGI (BT-549 breast): 8.16 µM; TGI (MDA-MB-435): > 50 µM; TGI (OVCAR-4 ovarian): > 50 µM; TGI (SK-MEL-2 melanoma): 38.6 µM; TGI (HCC-2998 colon): > 50 µM; TGI (OVCAR-8 ovarian): > 50 µM; TGI (TK-10 renal): 21.8 µM; TGI (SF-295 CNS): 25.1 µM; TGI (UACC-257 melanoma): > 50 µM; TGI (HOP-62 NSCLC): 15.6 µM; TGI (CAKI-1 renal): > 50 µM; TGI (SK-OV-3 ovarian): > 50 µM; TGI (SW-620 colon): > 50 µM; TGI (NCI-H522 lung): 31.6 µM; TGI (HCT-15 colon): > 50 µM; TGI (PC-3 prostate): > 50 µM; TGI (HCT-116 colon): > 50 µM; TGI (RPMI-8226 leukemia): > 50 µM; TGI (RXF 393 renal): > 50 µM; TGI (SK-MEL-5 melanoma): > 50 µM; TGI (HS 578T breast): > 50 µM; TGI (NCI-H460 lung): > 50 µM; TGI (KM12 colon): > 50 µM; TGI (786-0 renal): 21 µM; TGI (SR leukemia): > 50 µM; TGI (IGROV1 ovarian): > 50 µM; TGI (EKVX NSCLC): > 50 µM; TGI (DU-145 prostate): > 50 µM; TGI (NCI/ADR-RES ovarian): > 50 µM; TGI (MOLT-4 leukemia): > 50 µM

Question: Which TGI (SN12C renal) does the source give for `O=C(O)CCn1cnc2c(=S)nc[nH]c21` here?
Answer: > 100 µM

Question: What about the TGI (COLO 205 colon) of the same compound?
Answer: > 100 µM

Question: And the TGI (SNB-19 CNS)?
Answer: > 100 µM

Question: And the TGI (MCF7 breast)?
Answer: > 100 µM

Question: And the TGI (A498 renal)?
Answer: > 100 µM

Question: And the TGI (NCI-H23 lung)?
Answer: > 100 µM

Question: What about the TGI (UO-31 renal) of the same compound?
Answer: > 100 µM

Question: And the TGI (K-562 leukemia)?
Answer: > 100 µM

Question: What about the TGI (ACHN renal) of the same compound?
Answer: > 100 µM

Question: What about the TGI (HL-60(TB) leukemia) of the same compound?
Answer: > 100 µM

Question: And the TGI (A549 NSCLC)?
Answer: > 100 µM

Question: What about the TGI (M14 melanoma) of the same compound?
Answer: > 100 µM

Question: And the TGI (SK-MEL-28 melanoma)?
Answer: > 100 µM

Question: And the TGI (UACC-62 melanoma)?
Answer: > 100 µM

Question: What about the TGI (SF-539 CNS) of the same compound?
Answer: > 100 µM

Question: And the TGI (MALME-3M melanoma)?
Answer: > 100 µM

Question: What about the TGI (HT29 colon) of the same compound?
Answer: > 100 µM

Question: What about the TGI (MDA-N) of the same compound?
Answer: > 100 µM

Question: What about the TGI (MDA-MB-231 breast) of the same compound?
Answer: > 100 µM

Question: What about the TGI (SNB-75 CNS) of the same compound?
Answer: > 100 µM

Question: What about the TGI (SF-268 CNS) of the same compound?
Answer: > 100 µM

Question: What about the TGI (U251 CNS) of the same compound?
Answer: > 100 µM

Question: And the TGI (OVCAR-5 ovarian)?
Answer: > 100 µM

Question: And the TGI (NCI-H226 lung)?
Answer: > 100 µM

Question: What about the TGI (CCRF-CEM leukemia) of the same compound?
Answer: > 100 µM

Question: What about the TGI (T-47D breast) of the same compound?
Answer: > 100 µM

Question: What about the TGI (LOX IMVI melanoma) of the same compound?
Answer: > 100 µM

Question: And the TGI (OVCAR-3 ovarian)?
Answer: > 100 µM

Question: And the TGI (BT-549 breast)?
Answer: > 100 µM

Question: And the TGI (MDA-MB-435)?
Answer: > 100 µM

Question: And the TGI (OVCAR-4 ovarian)?
Answer: > 100 µM

Question: And the TGI (SK-MEL-2 melanoma)?
Answer: > 100 µM

Question: And the TGI (HCC-2998 colon)?
Answer: > 100 µM

Question: What about the TGI (OVCAR-8 ovarian) of the same compound?
Answer: > 100 µM

Question: What about the TGI (TK-10 renal) of the same compound?
Answer: > 100 µM

Question: What about the TGI (SF-295 CNS) of the same compound?
Answer: > 100 µM

Question: And the TGI (UACC-257 melanoma)?
Answer: > 100 µM

Question: What about the TGI (HOP-62 NSCLC) of the same compound?
Answer: > 100 µM

Question: And the TGI (CAKI-1 renal)?
Answer: > 100 µM

Question: And the TGI (SK-OV-3 ovarian)?
Answer: > 100 µM

Question: What about the TGI (SW-620 colon) of the same compound?
Answer: > 100 µM

Question: What about the TGI (NCI-H522 lung) of the same compound?
Answer: > 100 µM

Question: What about the TGI (HCT-15 colon) of the same compound?
Answer: > 100 µM

Question: What about the TGI (PC-3 prostate) of the same compound?
Answer: > 100 µM

Question: What about the TGI (HCT-116 colon) of the same compound?
Answer: > 100 µM

Question: What about the TGI (RPMI-8226 leukemia) of the same compound?
Answer: > 100 µM

Question: And the TGI (RXF 393 renal)?
Answer: > 100 µM

Question: What about the TGI (SK-MEL-5 melanoma) of the same compound?
Answer: > 100 µM

Question: What about the TGI (HS 578T breast) of the same compound?
Answer: > 100 µM

Question: And the TGI (NCI-H460 lung)?
Answer: > 100 µM

Question: And the TGI (KM12 colon)?
Answer: > 100 µM

Question: And the TGI (786-0 renal)?
Answer: > 100 µM

Question: And the TGI (SR leukemia)?
Answer: > 100 µM

Question: And the TGI (IGROV1 ovarian)?
Answer: > 100 µM

Question: And the TGI (EKVX NSCLC)?
Answer: > 100 µM

Question: And the TGI (DU-145 prostate)?
Answer: > 100 µM

Question: And the TGI (NCI/ADR-RES ovarian)?
Answer: > 100 µM

Question: And the TGI (MOLT-4 leukemia)?
Answer: > 100 µM
